Source: ChEMBL document CHEMBL1201862, “PubChem BioAssay data set” (2004)
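Method: 48-hour compound exposure of cells in 96-well plates, five concentrations, linear interpolation of endpoints. Abbreviation: GI50, concentration required for 50% inhibition of growth.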 The source made the active and inactive calls. Cut-off read from the data, not from the text of the source: active = GI50 up to about 1.1 µM and inactive = higher.

Columns and labels:
Test in all cases: NCI anticancer screen, dose series, 48 h
IGROV-1 = test system: IGROV-1
UACC-257 = test system: UACC-257
KM12 = test system: KM12
SR = test system: SR
RXF 393 = test system: RXF 393
A498 = test system: A498
786-0 = test system: 786-0
SN12C = test system: SN12C
SK-OV-3 = test system: SK-OV-3
NCI-H522 = test system: NCI-H522
SF-295 = test system: SF-295
LOX IMVI = test system: LOX IMVI
NCI-H23 = test system: NCI-H23
SNB-75 = test system: SNB-75
OVCAR-8 = test system: OVCAR-8
NCI-H226 = test system: NCI-H226
SK-MEL-2 = test system: SK-MEL-2
RPMI-8226 = test system: RPMI-8226
DU-145 = test system: DU-145
HCC 2998 = test system: HCC 2998

Row | Structure (SMILES) | GI50 (IGROV-1) | GI50 (UACC-257) | GI50 (KM12) | GI50 (SR) | GI50 (RXF 393) | GI50 (A498) | GI50 (786-0) | GI50 (SN12C) | GI50 (SK-OV-3) | GI50 (NCI-H522) | GI50 (SF-295) | GI50 (LOX IMVI) | GI50 (NCI-H23) | GI50 (SNB-75) | GI50 (OVCAR-8) | GI50 (NCI-H226) | GI50 (SK-MEL-2) | GI50 (RPMI-8226) | GI50 (DU-145) | GI50 (HCC 2998)
1 | Cn1ccnc1CCc1ccc(Cl)c(Cl)c1 | > 100 µM (inactive) | > 100 µM (inactive) | > 100 µM (inactive) | > 100 µM (inactive) | > 100 µM (inactive) | 73.5 µM (inactive) | > 100 µM (inactive) | > 100 µM (inactive) | > 100 µM (inactive) | > 100 µM (inactive) | > 100 µM (inactive) | > 100 µM (inactive) | > 100 µM (inactive) | 37.3 µM (inactive) | > 100 µM (inactive) | > 100 µM (inactive) | > 100 µM (inactive) | > 100 µM (inactive) | – | –
2 | C=C1N(C=O)C(C)(C)N(O)C1(C)C | > 100 µM (inactive) | > 100 µM (inactive) | > 100 µM (inactive) | – | > 100 µM (inactive) | – | > 100 µM (inactive) | > 100 µM (inactive) | > 100 µM (inactive) | – | > 100 µM (inactive) | > 100 µM (inactive) | > 100 µM (inactive) | > 100 µM (inactive) | > 100 µM (inactive) | > 100 µM (inactive) | > 100 µM (inactive) | > 100 µM (inactive) | > 100 µM (inactive) | > 100 µM (inactive)
3 | CNC(=S)N(C1CCCCC1)C1CCCCC1 | > 100 µM (inactive) | 34.1 µM (inactive) | 55.8 µM (inactive) | 42.4 µM (inactive) | > 100 µM (inactive) | – | > 100 µM (inactive) | > 100 µM (inactive) | > 100 µM (inactive) | – | 61.2 µM (inactive) | > 100 µM (inactive) | 82.8 µM (inactive) | 65.3 µM (inactive) | > 100 µM (inactive) | > 100 µM (inactive) | 76.9 µM (inactive) | 35.7 µM (inactive) | > 100 µM (inactive) | > 100 µM (inactive)
4 | CCCCCCCCCCCC(=O)OCC1OC(n2cc(F)c(=O)[nH]c2=O)C(NC(=O)OCc2ccccc2)C(OC(=O)CCCCCCCCCCC)C1O (centres undefined) | > 100 µM (inactive) | > 100 µM (inactive) | > 100 µM (inactive) | > 100 µM (inactive) | > 100 µM (inactive) | > 100 µM (inactive) | > 100 µM (inactive) | > 100 µM (inactive) | > 100 µM (inactive) | > 100 µM (inactive) | > 100 µM (inactive) | > 100 µM (inactive) | > 100 µM (inactive) | > 100 µM (inactive) | > 100 µM (inactive) | > 100 µM (inactive) | > 100 µM (inactive) | > 100 µM (inactive) | – | > 100 µM (inactive)
5 | COCN1C(=O)[C@@H]2C[C@@H](OC/C=C/CBr)CN2C(=O)c2ccccc21 | 9.23 µM (inactive) | 16.5 µM (inactive) | 22 µM (inactive) | – | 14 µM (inactive) | 26.1 µM (inactive) | 21.5 µM (inactive) | 14.1 µM (inactive) | 33.3 µM (inactive) | 5.68 µM (inactive) | 22.3 µM (inactive) | 2.04 µM (inactive) | 23.2 µM (inactive) | 10.7 µM (inactive) | 14.5 µM (inactive) | 9.38 µM (inactive) | 29.7 µM (inactive) | – | 19.4 µM (inactive) | –
6 | COC1C(N(C)C)=C(c2ccccc2)C(=O)N2CCc3ccccc3C12 (centres undefined) | > 100 µM (inactive) | > 100 µM (inactive) | > 100 µM (inactive) | – | > 100 µM (inactive) | > 100 µM (inactive) | > 100 µM (inactive) | > 100 µM (inactive) | > 100 µM (inactive) | > 100 µM (inactive) | > 100 µM (inactive) | > 100 µM (inactive) | > 100 µM (inactive) | > 100 µM (inactive) | > 100 µM (inactive) | > 100 µM (inactive) | > 100 µM (inactive) | – | > 100 µM (inactive) | –
7 | COc1cccc2c1C(=O)c1c(O)c3c(c(O)c1C2=O)CC(O)(C(C)=O)CC3OC1OC(COC(C)=O)C(OC(C)=O)C(OC(C)=O)C1OC(C)=O (centres undefined) | 16.3 µM (inactive) | < 0.01 µM (active) | 52.7 µM (inactive) | 5.38 µM (inactive) | 0.269 µM (active) | – | 12.1 µM (inactive) | 48.3 µM (inactive) | 32.7 µM (inactive) | > 100 µM (inactive) | 17.2 µM (inactive) | 29.9 µM (inactive) | – | 9.29 µM (inactive) | 11.5 µM (inactive) | – | 55.7 µM (inactive) | – | 26.9 µM (inactive) | –
8 | COC(=O)C1=C(OC(=O)/C(=C/c2c(F)cccc2F)c2ccccc2)C(C(=O)OC)[C@@]2(O)[C@@H](C(=O)OC)[C@H](C)C[C@@H]1[C@@H]2C(=O)OC (some centres undefined) | 59.4 µM (inactive) | > 100 µM (inactive) | > 100 µM (inactive) | – | > 100 µM (inactive) | – | > 100 µM (inactive) | > 100 µM (inactive) | > 100 µM (inactive) | 6.76 µM (inactive) | > 100 µM (inactive) | > 100 µM (inactive) | > 100 µM (inactive) | > 100 µM (inactive) | > 100 µM (inactive) | > 100 µM (inactive) | > 100 µM (inactive) | – | > 100 µM (inactive) | –
9 | CC1=C2C(=O)NN=C2CCN1c1ccc(Br)cc1 | > 100 µM (inactive) | > 100 µM (inactive) | > 100 µM (inactive) | – | – | 68.7 µM (inactive) | > 100 µM (inactive) | > 100 µM (inactive) | > 100 µM (inactive) | > 100 µM (inactive) | > 100 µM (inactive) | 62.8 µM (inactive) | > 100 µM (inactive) | > 100 µM (inactive) | > 100 µM (inactive) | > 100 µM (inactive) | > 100 µM (inactive) | – | > 100 µM (inactive) | –
10 | O=C(/C=C(\N=P(c1ccccc1)(c1ccccc1)c1ccccc1)C(F)(F)C(F)(F)C(F)(F)C(F)(F)C(F)(F)C(F)(F)C(F)(F)F)c1ccccc1 | > 100 µM (inactive) | > 100 µM (inactive) | > 100 µM (inactive) | > 100 µM (inactive) | > 100 µM (inactive) | – | > 100 µM (inactive) | > 100 µM (inactive) | > 100 µM (inactive) | – | > 100 µM (inactive) | > 100 µM (inactive) | > 100 µM (inactive) | > 100 µM (inactive) | – | – | > 100 µM (inactive) | > 100 µM (inactive) | > 100 µM (inactive) | > 100 µM (inactive)
11 | Cc1nn2c(C(=O)N/N=C/c3ccc([N+](=O)[O-])cc3)c(C)nc2s1 | > 100 µM (inactive) | > 100 µM (inactive) | > 100 µM (inactive) | – | > 100 µM (inactive) | > 100 µM (inactive) | > 100 µM (inactive) | > 100 µM (inactive) | 28.4 µM (inactive) | 51.2 µM (inactive) | > 100 µM (inactive) | > 100 µM (inactive) | > 100 µM (inactive) | 50.5 µM (inactive) | > 100 µM (inactive) | > 100 µM (inactive) | – | – | > 100 µM (inactive) | > 100 µM (inactive)
12 | O=C(c1cccs1)N(C(=S)OCCOc1ccccc1)c1ccccc1 | 25.4 µM (inactive) | 29.4 µM (inactive) | 26 µM (inactive) | – | 23.6 µM (inactive) | 25.5 µM (inactive) | 25.2 µM (inactive) | 22.1 µM (inactive) | 30.3 µM (inactive) | 23 µM (inactive) | 26.5 µM (inactive) | 17.1 µM (inactive) | 20.7 µM (inactive) | 24.3 µM (inactive) | 25.5 µM (inactive) | – | 21.3 µM (inactive) | 20.9 µM (inactive) | 28.6 µM (inactive) | 24.7 µM (inactive)
13 | C=C(C)[C@@H]1CCC2=C[C@H](OC2=O)[C@@]2(C)C[C@@H]2C(=O)/C=C(/C)C(=O)[C@H]1OC(C)=O | 14.1 µM (inactive) | 21.1 µM (inactive) | 17.7 µM (inactive) | – | 16 µM (inactive) | 23.2 µM (inactive) | 11.4 µM (inactive) | 21.5 µM (inactive) | > 51.9 µM (inactive) | 4.3 µM (inactive) | 42.6 µM (inactive) | 7.78 µM (inactive) | 11.6 µM (inactive) | 38.9 µM (inactive) | 15.1 µM (inactive) | 23.9 µM (inactive) | 26.3 µM (inactive) | 4.12 µM (inactive) | 5.97 µM (inactive) | 21.7 µM (inactive)
14 | CCCCCCCCCOC(=O)c1cnc(Cl)cn1 | 20.2 µM (inactive) | 23.6 µM (inactive) | 17.5 µM (inactive) | 49.1 µM (inactive) | – | – | 72.4 µM (inactive) | 18.3 µM (inactive) | 34.9 µM (inactive) | 19 µM (inactive) | 17.6 µM (inactive) | 19.8 µM (inactive) | 18.2 µM (inactive) | 22.3 µM (inactive) | 33.4 µM (inactive) | 18.2 µM (inactive) | 22.1 µM (inactive) | 21.9 µM (inactive) | 19.6 µM (inactive) | –
15 | CCN(CC)CCSc1c2ccccc2nc2cc(NCC(=O)Nc3ccccc3-c3ccccc3NC(=O)CNc3ccc4c(SCCN(CC)CC)c5ccccc5nc4c3)ccc12 | > 100 µM (inactive) | > 100 µM (inactive) | > 74.8 µM (inactive) | 34.1 µM (inactive) | > 100 µM (inactive) | > 100 µM (inactive) | > 92.9 µM (inactive) | > 100 µM (inactive) | > 100 µM (inactive) | 74.6 µM (inactive) | > 100 µM (inactive) | > 76.6 µM (inactive) | > 100 µM (inactive) | > 77.4 µM (inactive) | > 100 µM (inactive) | > 100 µM (inactive) | > 100 µM (inactive) | 53.7 µM (inactive) | – | > 100 µM (inactive)
